# Active and inactive are the calls of the source.
# What was measured:
# HT-1080 = assay: cytotoxicity in HT1080 fibrosarcoma cells, cell-based, fluorescence readout (AID 620); format: functional; conditions: Homo sapiens
# [1] = Luminescence-based counterscreen assay for KLF5 inhibitors: dose response cell-based high throughput screening assay to identify cytotoxic compounds using the IEC-6 intestinal epithelial cell line. [Related pubchem assays: 1700 (Primary screen.), 1834 (Confirmation screen.), 1858 (Summary AID.), 1905 (Counterscreen.)]; format: functional
# [2] = target: Luciferin 4-monooxygenase (Photinus pyralis, UniProt P08659); assay: Counter Screen for Luciferase-based Assay Positives. [Related pubchem assays: 620, 618, 411 ]
# Insulin-degrading enzyme = target: T1, Insulin-degrading enzyme (Homo sapiens, UniProt P14735); assay: Dose Response: Fluorescence polarization-based cell-based high throughput dose response assay for inhibitors of insulin-degrading enzyme (IDE). [Related pubchem assays: 434962 (Primary screen (IDE inhibitors in singlicate)), 449730 (Counterscreen (Cytotoxicity in triplicate)), 435028 (Confirmation (IDE inhibitors in triplicate)), 434984 (Summary …; format: functional
# T1 sequence (P14735 whole entry): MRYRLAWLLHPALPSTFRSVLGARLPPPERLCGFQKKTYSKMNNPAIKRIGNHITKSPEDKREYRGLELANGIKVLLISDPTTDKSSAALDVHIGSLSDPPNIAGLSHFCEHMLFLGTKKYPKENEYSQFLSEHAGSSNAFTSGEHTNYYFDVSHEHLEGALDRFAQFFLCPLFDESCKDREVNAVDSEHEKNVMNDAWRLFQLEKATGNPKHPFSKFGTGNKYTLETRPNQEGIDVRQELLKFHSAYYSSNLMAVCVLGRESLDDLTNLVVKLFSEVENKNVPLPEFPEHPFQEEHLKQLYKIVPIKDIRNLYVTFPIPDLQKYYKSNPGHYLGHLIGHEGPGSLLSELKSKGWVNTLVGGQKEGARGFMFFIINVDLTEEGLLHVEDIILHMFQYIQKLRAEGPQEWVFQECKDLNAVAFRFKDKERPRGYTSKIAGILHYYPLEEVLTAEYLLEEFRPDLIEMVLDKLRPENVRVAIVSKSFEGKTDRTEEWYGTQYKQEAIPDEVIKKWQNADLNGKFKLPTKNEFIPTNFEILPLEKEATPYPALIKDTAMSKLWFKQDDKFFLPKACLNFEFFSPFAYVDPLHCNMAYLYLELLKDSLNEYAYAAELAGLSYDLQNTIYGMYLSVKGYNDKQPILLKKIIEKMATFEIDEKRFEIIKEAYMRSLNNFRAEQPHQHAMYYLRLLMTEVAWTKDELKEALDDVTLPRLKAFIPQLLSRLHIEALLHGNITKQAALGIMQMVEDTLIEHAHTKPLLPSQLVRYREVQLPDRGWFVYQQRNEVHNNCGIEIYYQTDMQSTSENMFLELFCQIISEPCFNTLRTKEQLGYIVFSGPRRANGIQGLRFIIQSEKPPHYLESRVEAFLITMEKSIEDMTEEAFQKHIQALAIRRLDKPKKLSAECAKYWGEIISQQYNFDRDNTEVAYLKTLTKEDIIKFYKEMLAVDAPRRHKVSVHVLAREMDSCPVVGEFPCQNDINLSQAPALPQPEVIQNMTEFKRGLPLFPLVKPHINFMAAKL
# [3] = Counterscreen for IDE inhibitors: Luminescence-based cell-based high throughput dose response assay to identify compounds that are cytotoxic to HEK cells. [Related pubchem assays: 434962 (Primary screen (IDE inhibitors in singlicate)), 449730 (Counterscreen (Cytotoxicity in triplicate)), 435028 (Confirmation (IDE inhibitors in triplicate)) …; format: functional; conditions: HEK293
# [4] = target: Mothers against decapentaplegic homolog 3 (Homo sapiens, UniProt P84022); assay: Smad3 binding inhibitors, lysate ELISA, dose response, cell lysate, secondary confirmation, chemiluminescent ELISA, HEK293 lysate (AID 1058); format: functional
# HEK293 = assay: Fluorescence-based counterscreen for potentiators or agonists of NPY-Y2: cell-based high-throughput dose response assay to identify inhibitors of cyclic nucleotide gated ion channel (CNGC) activity. In this assay, the parental HEK293 cell line transfected with a cyclic-nucleotide gated ion channel (CNGC)-based cAMP sensor is used to measure inhibition of isoproterenol-induced CNGC activity by test compound.; format: functional; conditions: Homo sapiens;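 note: stimulus is 1 µM isoproterenol at EC100 plus PDE inhibitor Ro 20-1724 at 25 µM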
# [5] = HEp-2 cell cytotoxicity, dose response, cytotoxicity control for RSV inhibitor project, HTS (AID 2410); format: functional; conditions: human respiratory syncytial virus
# [6] = target: T2, Neuropeptide Y receptor type 2 (Homo sapiens, UniProt P49146); assay: Fluorescence-based cell-based high-throughput dose response assay for agonists of NPY-Y2. [Related pubchem assays: 1703 (Screening assay (CNGC inhibitors).), 1359 (Screening assay (NPY-Y2 potentiators or agonists).), 1304 (Screening assay (NPY-Y1 potentiators or agonists).), 1710 (Screening assay (NPY-Y2 agonists).), 1791 (Summary AID.)]; format: functional
# T2 sequence (P49146 whole entry): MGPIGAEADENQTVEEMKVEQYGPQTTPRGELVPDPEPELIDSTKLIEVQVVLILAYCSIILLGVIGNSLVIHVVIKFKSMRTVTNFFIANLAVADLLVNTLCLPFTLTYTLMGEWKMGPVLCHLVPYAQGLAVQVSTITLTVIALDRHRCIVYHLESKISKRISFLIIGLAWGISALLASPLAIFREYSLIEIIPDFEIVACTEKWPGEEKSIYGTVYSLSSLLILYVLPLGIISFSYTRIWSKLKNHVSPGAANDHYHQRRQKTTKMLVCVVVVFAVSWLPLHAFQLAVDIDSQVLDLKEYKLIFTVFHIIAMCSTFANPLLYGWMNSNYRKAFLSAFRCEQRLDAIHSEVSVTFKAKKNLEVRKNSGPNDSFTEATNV
# [7] = target: T3, Neuropeptide Y receptor type 1 (Homo sapiens, UniProt P25929); assay: Fluorescence-based counterscreen for agonists of NPY-Y2: cell-based high-throughput dose response assay for agonists of NPY-Y1.; format: functional
# T3 sequence (P25929 whole entry): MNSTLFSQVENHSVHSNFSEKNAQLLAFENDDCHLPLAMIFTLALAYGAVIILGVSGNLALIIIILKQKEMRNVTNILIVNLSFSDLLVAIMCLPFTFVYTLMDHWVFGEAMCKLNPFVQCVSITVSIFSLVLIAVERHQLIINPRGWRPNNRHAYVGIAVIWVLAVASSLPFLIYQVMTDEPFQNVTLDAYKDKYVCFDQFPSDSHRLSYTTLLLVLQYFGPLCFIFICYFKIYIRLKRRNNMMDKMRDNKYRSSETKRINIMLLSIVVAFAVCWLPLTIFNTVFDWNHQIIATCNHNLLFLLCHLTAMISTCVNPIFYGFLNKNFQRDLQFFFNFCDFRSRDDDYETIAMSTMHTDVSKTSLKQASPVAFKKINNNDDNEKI
# Bcl-2-like protein 10 = target: T4, Bcl-2-like protein 10 (Homo sapiens, UniProt Q9HD36); assay: Biochemical TR3 FP assay of Bcl-B inhibitor potency, EC50 (AID 1243); format: functional
# T4 sequence (Q9HD36 whole entry): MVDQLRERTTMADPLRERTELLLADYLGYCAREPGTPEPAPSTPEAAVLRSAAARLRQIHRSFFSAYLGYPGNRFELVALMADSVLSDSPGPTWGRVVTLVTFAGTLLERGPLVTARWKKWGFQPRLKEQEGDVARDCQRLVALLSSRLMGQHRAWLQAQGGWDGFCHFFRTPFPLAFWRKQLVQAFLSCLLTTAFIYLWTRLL
# cells [8] = format: functional, cell-based
# cells [9] = format: functional, cell-based; remark: listed apart in the source
# [10] = inhibitors of Vif binding to APOBEC3G peptide, primary screen, biochemical, TR-FRET, GST-Vif 1-94, biotin-A3G peptide, dose response retest (AID 1117319); format: functional;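 note: TR-FRET signal of purified GST-Vif binding a biotinylated A3G peptide; inhibitors lower the FRET signal by blocking Vif and A3G binding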
# [11] = THP-1 cell cytotoxicity, dose response, cytotoxicity control for Vif-APOBEC3G degradation inhibitor project, THP-1 cells (AID 1117359); format: functional; conditions: Human immunodeficiency virus 1, THP-1
# Vero = Vero cell cytotoxicity, cytotoxicity control for flavivirus capping enzyme inhibitors (AID 588742); format: functional; conditions: Chlorocebus sabaeus
# Protein Tat = Protein Tat (Human immunodeficiency virus type 1 group M subtype B (isolate HXB2)(HIV-1), UniProt P04608); format: functional;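 note: tat binding to TAR RNA read out by fluorescence polarization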
# Mucolipin-3 = target: T5, Mucolipin-3 (Homo sapiens, UniProt Q8TDD5); assay: Fluorescence counterscreen assay for […] agonists: dose response cell-based high-throughput screening assay to identify agonists of the transient receptor potential channel ML3 (TRPML3). [Related pubchem assays: 1424, 1448 ]; format: functional
# T5 sequence (Q8TDD5 whole entry): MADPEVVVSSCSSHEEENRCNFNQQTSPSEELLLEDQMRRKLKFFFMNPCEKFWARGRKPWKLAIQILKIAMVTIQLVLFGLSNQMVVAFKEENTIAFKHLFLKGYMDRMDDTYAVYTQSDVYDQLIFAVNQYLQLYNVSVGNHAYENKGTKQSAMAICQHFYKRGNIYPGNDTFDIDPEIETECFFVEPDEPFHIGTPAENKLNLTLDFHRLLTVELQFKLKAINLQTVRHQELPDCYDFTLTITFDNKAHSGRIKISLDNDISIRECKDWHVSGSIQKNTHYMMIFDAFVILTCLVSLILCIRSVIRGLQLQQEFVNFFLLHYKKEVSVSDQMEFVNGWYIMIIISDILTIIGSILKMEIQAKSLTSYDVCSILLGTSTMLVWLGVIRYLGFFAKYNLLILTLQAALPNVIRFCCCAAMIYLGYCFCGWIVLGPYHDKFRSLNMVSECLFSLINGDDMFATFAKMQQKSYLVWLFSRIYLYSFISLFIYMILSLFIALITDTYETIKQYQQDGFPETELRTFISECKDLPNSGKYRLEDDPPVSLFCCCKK
# Troponin, cardiac muscle = Troponin, cardiac muscle (Homo sapiens, UniProt P19429+P45379+P63316); assay: Fluorescence-based biochemical high throughput dose response assay for activators of the calcium sensitivity of cardiac Regulated Thin Filaments (RTF). [Related pubchem assays (depositor defined):AID493008, AID493018, AID504382, AID504383]; format: protein-complex assay
# Ion channel NompC = Ion channel NompC (Danio rerio, UniProt Q7T1G6); assay: Dose response cell-based high-throughput screening assay for agonists of the transient receptor potential channel N1 (TRPN1). [Related pubchem assays (depositor defined):AID1424, AID1448]; format: functional
# [12] = enhancers of respiration in Yfh1-depleted yeast, dose response, Friedreich's ataxia, plus single-dose screen (AID 1465); format: functional;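 note: yeast depleted of Yfh1p frataxin homolog grown on glycerol needing respiration; WST-1 tetrazolium dye reduction as measure of cellular dehydrogenase metabolic activity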
# [13] = target: Peroxisome proliferator-activated receptor gamma/Nuclear receptor coactivator 3 (Homo sapiens, UniProt P37231); format: functional;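 note: agonist potency for raising coactivator recruitment to the receptor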
# [14] = target: Peroxisome proliferator-activated receptor gamma/Nuclear receptor coactivator 1 (Homo sapiens, UniProt P37231); format: functional;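 note: agonist potency as compounds enhance coactivator SRC-1 recruitment to PPARgamma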
# [15] = target: Peroxisome proliferator-activated receptor gamma/Nuclear receptor coactivator 2 (Homo sapiens, UniProt P37231); format: functional;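 note: agonist potency for raising coactivator recruitment to the receptor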
# Protein Tat, sequence (P04608 whole entry): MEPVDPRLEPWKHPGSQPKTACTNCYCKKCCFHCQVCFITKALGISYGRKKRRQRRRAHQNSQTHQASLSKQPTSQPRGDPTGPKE
# Mothers against decapentaplegic homolog 3, sequence (P84022 whole entry): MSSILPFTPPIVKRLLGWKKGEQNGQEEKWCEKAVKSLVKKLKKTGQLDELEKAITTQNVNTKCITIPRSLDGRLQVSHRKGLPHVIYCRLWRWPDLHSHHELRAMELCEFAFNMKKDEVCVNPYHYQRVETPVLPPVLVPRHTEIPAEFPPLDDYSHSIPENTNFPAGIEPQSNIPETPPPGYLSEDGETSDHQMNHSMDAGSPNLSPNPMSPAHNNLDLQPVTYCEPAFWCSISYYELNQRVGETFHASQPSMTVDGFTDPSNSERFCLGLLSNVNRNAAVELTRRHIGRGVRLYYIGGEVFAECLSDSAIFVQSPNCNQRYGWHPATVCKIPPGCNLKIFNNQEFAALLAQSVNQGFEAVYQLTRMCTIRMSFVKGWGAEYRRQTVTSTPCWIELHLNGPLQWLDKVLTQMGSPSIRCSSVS
# Ion channel NompC, sequence (Q7T1G6 whole entry): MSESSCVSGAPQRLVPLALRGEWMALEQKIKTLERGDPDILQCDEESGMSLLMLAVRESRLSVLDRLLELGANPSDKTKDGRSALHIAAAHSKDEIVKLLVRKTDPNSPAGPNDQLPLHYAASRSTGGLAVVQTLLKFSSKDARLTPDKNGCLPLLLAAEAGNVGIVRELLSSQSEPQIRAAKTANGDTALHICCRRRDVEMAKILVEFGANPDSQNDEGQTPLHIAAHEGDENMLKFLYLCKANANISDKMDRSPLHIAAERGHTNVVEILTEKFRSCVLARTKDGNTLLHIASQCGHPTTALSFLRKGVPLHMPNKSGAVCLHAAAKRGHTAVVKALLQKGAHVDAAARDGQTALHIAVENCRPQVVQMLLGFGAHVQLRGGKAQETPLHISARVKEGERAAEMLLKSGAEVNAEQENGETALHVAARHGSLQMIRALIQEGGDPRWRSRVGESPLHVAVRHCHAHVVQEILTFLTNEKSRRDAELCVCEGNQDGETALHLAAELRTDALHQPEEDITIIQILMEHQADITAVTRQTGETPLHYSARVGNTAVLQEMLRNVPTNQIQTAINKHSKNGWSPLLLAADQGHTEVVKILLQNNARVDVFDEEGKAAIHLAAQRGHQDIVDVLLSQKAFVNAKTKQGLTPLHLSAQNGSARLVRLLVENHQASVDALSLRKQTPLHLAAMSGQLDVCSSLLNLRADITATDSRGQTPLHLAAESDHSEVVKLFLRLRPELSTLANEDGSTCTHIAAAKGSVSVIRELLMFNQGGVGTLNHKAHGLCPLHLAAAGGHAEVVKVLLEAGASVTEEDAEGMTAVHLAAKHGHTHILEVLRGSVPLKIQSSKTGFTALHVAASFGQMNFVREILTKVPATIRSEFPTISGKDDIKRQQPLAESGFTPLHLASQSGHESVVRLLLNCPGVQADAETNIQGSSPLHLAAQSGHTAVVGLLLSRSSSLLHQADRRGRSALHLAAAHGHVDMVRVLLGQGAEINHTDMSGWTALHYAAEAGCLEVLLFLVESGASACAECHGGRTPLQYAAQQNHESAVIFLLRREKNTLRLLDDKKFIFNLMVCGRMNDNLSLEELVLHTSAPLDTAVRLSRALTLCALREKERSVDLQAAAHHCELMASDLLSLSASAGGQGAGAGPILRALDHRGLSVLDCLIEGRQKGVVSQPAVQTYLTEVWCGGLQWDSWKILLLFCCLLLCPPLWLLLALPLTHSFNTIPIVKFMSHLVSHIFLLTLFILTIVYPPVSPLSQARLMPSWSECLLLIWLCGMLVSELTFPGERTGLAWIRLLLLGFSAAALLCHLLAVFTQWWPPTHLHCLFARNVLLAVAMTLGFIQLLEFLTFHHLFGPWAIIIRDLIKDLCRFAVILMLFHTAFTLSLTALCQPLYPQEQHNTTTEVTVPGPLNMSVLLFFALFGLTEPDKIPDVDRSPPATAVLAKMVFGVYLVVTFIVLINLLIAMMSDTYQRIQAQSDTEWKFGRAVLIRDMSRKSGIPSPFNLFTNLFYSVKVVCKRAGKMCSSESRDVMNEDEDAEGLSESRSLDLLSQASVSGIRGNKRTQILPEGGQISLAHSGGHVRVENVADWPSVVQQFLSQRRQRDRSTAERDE
# Peroxisome proliferator-activated receptor gamma/Nuclear receptor coactivator 3, sequence (P37231 whole entry): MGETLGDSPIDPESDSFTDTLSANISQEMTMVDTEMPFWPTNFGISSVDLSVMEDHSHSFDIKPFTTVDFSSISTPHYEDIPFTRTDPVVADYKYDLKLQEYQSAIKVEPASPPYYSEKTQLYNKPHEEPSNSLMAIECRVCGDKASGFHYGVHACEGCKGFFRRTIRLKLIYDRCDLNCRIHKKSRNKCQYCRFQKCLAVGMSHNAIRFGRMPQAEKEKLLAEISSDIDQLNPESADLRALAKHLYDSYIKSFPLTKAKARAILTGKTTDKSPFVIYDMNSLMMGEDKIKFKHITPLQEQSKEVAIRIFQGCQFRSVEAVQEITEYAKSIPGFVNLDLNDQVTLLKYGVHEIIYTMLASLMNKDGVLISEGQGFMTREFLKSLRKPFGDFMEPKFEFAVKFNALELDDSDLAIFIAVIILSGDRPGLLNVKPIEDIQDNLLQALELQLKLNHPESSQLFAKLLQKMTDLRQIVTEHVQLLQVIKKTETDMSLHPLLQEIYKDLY
# Peroxisome proliferator-activated receptor gamma/Nuclear receptor coactivator 3, sequence (Q9Y6Q9 whole entry, further chain): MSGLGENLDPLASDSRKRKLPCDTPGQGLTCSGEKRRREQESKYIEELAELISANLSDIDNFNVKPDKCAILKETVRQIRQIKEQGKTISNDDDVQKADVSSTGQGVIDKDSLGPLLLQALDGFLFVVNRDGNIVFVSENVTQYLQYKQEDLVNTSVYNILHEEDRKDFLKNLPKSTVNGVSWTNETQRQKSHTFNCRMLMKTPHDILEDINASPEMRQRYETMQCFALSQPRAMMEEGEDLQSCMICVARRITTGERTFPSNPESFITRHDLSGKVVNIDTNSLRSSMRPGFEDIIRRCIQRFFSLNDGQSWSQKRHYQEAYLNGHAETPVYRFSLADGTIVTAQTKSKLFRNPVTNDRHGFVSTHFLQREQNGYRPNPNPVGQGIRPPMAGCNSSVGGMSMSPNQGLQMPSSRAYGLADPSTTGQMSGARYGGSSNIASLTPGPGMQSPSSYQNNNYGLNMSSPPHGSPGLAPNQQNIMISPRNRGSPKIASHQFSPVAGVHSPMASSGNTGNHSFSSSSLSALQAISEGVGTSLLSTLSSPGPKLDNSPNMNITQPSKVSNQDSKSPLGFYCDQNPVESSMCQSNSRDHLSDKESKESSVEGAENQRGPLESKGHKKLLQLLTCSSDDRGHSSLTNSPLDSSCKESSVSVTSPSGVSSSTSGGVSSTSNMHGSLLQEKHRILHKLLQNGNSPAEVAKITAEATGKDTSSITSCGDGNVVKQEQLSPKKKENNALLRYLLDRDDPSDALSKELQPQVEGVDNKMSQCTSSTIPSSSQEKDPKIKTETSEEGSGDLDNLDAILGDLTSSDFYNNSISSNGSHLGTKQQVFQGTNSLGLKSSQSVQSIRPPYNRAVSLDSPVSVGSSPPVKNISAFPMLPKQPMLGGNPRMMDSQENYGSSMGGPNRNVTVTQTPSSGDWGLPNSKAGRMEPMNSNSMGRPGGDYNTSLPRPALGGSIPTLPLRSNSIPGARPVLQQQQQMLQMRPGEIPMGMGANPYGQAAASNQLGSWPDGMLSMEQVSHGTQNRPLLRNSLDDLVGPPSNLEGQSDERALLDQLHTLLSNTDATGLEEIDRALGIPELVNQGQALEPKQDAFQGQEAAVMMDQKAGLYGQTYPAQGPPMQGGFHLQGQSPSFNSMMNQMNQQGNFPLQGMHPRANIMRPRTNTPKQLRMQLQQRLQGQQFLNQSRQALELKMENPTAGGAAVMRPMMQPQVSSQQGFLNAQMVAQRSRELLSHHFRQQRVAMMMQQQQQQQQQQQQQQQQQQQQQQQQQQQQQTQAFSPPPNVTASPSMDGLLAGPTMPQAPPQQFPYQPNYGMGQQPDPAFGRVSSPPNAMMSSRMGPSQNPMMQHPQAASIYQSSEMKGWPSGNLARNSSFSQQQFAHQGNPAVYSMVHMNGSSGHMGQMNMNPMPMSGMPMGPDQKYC
# Luciferin 4-monooxygenase, sequence (P08659 whole entry): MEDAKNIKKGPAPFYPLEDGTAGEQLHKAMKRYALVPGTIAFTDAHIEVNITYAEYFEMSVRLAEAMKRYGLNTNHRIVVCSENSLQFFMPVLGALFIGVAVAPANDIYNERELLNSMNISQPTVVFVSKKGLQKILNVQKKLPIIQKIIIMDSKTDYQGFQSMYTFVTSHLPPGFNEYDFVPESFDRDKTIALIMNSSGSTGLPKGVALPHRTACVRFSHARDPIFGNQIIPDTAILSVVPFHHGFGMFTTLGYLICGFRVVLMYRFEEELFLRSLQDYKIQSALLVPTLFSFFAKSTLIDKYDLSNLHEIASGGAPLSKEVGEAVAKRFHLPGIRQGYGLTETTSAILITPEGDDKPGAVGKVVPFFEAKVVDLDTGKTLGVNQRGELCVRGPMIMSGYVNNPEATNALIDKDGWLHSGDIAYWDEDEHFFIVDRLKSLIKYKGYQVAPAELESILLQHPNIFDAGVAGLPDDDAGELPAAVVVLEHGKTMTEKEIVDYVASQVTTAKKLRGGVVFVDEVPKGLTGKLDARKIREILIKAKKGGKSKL
compound,measurement,setting,value
O=C(Nc1nccs1)c1cc2c(s1)CCCCC2,EC50,HT-1080,> 50 µM (not active)
same,IC50,[1],33.2 µM (not active)
same,EC50,[2],8.26 µM (active)
Cc1ccc(/C=N\NC(=O)/C(=C\Nc2nccc(C)n2)NC(=O)c2ccccc2)cc1,IC50,Insulin-degrading enzyme,5.43 µM (active)
same,IC50,[3],> 55.7 µM (not active)
COc1ccc(C(c2cc3c(cc2O)OCO3)N2CCOCC2)c(OC)c1OC (centres undefined),IC50,[4],3.97 µM (not active)
CC(=O)Nc1ccc(-c2cc3ccccc3o2)cc1,EC50,HEK293,27.4 µM (not active)
same,CC50,[5],28.2 µM (active)
same,EC50,[6],> 35.4 µM (not active)
same,EC50,[7],28.9 µM (not active)
Oc1cccc(/C=N/c2c(-c3ccco3)nc3ccccn23)c1,EC50,Bcl-2-like protein 10,9.07 µM (active)
same,EC50,cells [8],66.5 µM (active)
same,EC50,cells [9],> 350 µM (not active)
same,IC50,[10],> 66.8 µM (active)
same,CC50,[11],> 40 µM (active)
same,CC50,Vero,> 40 µM (active)
same,IC50,Protein Tat,53.3 µM (inconclusive)
CN1CCS/C1=C/C=C1\SC(=S)N(CC(=O)O)C1=O,EC50,Mucolipin-3,12.2 µM (not active)
same,EC50,"Troponin, cardiac muscle",870 nM (active)
same,EC50,Ion channel NompC,5.92 µM (active)
same,EC50,[12],> 100 µM (active)
CC(C)(C)c1ccc(OCc2ccc(C(=O)N3CCOCC3)o2)cc1,EC50,[13],> 79.4 µM (not active)
same,EC50,[14],> 79.4 µM (not active)
same,EC50,[15],> 79.4 µM (not active)
